Data from publication PMC9919591, “New Triazine Derivatives as Serotonin 5-HT6 Receptor Ligands” (Molecules, 2023).
“And” between values parts separate entries of the source, which are not always exact repeats. Identical values can stand only once. Counter-ions that a name gives are not always drawn.

Tests used:
[1] = PAMPA, study b; cited from earlier work
human 5-HT6R = biological target: T1, human 5-HT6R (Homo sapiens, UniProt P50406); experiment: Radioligand binding assay, 5-HT6R ([3H]-LSD); settings: for decrease in affinity for 5-HT6R compared to MST4: ratio of Ki values vs MST4 (Ki = 11 nM); for Ki: [3H]-LSD, HEK293 cells stably expressing human 5-HT6R, average of at least two independent experiments
T1 construct: expressed in transfected cells; host or cells: HEK293
Description: The affinity of compounds (1–25) for 5-HT6R was evaluated in the radioligand binding assay in HEK293 cells stably expressing human 5-HT6R. [^3H]-LSD as a radioligand was used. […] All results are collected in Table 1, Table 2 and Table 3.
Radioligand binding assays were used to determine the affinity of the synthesized compounds for human serotonin 5-HT6R, 5-HT2AR, 5-HT7R and dopamine D2R, which were stably expressed in HEK293 cells or CHOk1 cells (5-HT2AR). This was done as described previously.

human 5-HT7R = biological target: T2, human 5-HT7R (Homo sapiens, UniProt P34969); experiment: Radioligand binding assay, 5-HT7R ([3H]-5-CT); settings: HEK293 cells stably expressing human 5-HT7R
T2 construct: expressed in transfected cells; host or cells: HEK293
Description: (§1) Affinity for serotonin 5-HT2A, 5-HT7 and dopamine D2 receptors (D2R) as protein off-targets was evaluated in the radioligand binding assays. In CHO-K1 cells, it was stably expressed human 5-HT2AR, whereas human 5-HT7R and D2R were stably expressed in HEK293 cells. […] A particularly weak affinity towards this receptor was shown through compounds of series 1 (compounds 1–7) and series 2 (compounds 8–13). […]. Radioligand binding assays were used to determine the affinity of the synthesized compounds for human serotonin 5-HT6R, 5-HT2AR, 5-HT7R and dopamine D2R, which were stably expressed in HEK293 cells or CHOk1 cells (5-HT2AR). This was done as described previously.

human 5-HT2AR = biological target: T3, human 5-HT2AR (Homo sapiens, UniProt P28223); experiment: Radioligand binding assay, 5-HT2AR ([3H]-ketanserin); settings: CHO-K1 cells stably expressing human 5-HT2AR
T3 construct: expressed in transfected cells; host or cells: CHO-K1
Description: as §1

human D2R = biological target: T4, human D2R (Homo sapiens, UniProt P14416); experiment: Radioligand binding assay, D2R ([3H]-raclopride); settings: HEK293 cells stably expressing human D2R
T4 construct: expressed in transfected cells; host or cells: HEK293
Description: as §1

T2 sequence (P34969 whole entry): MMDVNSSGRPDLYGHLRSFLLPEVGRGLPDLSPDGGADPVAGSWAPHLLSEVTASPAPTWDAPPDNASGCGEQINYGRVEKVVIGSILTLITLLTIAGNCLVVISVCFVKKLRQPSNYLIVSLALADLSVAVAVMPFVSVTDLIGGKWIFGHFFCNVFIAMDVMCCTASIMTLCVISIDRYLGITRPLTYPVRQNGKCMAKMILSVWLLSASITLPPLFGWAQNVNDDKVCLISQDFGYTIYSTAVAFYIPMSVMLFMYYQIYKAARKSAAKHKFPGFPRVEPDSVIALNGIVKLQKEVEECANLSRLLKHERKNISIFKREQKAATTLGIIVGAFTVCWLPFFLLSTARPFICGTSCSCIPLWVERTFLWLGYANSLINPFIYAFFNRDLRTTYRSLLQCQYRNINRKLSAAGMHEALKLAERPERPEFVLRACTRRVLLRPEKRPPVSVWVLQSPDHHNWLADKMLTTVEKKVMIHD
T4 sequence (P14416 whole entry): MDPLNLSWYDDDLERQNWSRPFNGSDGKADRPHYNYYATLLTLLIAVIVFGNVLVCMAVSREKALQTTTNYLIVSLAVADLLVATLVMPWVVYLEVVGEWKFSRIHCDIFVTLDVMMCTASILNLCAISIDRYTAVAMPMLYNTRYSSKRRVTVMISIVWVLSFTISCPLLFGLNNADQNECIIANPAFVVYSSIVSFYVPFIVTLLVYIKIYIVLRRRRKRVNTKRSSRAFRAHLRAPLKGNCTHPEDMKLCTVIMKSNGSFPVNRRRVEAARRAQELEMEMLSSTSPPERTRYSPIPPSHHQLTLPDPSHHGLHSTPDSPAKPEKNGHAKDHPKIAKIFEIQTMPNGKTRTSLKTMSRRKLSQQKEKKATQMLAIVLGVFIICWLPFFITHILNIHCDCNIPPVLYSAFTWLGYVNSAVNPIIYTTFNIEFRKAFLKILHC
T1 sequence (P50406 whole entry): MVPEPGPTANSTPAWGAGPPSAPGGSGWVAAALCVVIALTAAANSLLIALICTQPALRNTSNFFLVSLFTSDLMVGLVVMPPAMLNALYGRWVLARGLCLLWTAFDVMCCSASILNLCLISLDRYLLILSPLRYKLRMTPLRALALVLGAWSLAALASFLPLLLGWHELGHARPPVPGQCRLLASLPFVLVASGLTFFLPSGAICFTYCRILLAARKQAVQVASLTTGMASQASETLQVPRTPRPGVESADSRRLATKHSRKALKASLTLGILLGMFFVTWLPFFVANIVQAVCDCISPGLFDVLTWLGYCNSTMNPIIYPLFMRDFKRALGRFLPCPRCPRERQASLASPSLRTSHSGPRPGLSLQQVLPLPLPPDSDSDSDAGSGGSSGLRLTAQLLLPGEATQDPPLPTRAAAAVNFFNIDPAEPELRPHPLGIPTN
T3 sequence (P28223 whole entry): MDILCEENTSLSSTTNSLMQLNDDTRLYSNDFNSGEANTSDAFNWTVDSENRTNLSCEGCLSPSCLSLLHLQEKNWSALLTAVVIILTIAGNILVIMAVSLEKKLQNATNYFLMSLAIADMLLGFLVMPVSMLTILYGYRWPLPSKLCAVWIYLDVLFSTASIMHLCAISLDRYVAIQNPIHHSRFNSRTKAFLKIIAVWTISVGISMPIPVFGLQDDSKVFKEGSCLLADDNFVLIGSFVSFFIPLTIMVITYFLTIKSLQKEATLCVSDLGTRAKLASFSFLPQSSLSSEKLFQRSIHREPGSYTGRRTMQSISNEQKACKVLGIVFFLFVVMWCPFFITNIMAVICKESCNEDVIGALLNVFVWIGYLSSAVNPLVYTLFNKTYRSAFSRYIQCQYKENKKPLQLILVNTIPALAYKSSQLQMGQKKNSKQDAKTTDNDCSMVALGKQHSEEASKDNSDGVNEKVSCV

Compound | melting point | Pe ± SD [1] | decrease in affinity for 5-HT6R compared to MST4 (human 5-HT6R) | Ki (human 5-HT7R) | Ki (human 5-HT2AR) | Ki (human 5-HT6R) | Ki (human D2R)
CN1CCN(c2nc(N)nc(COc3ccc(C(C)(C)C)cc3C(C)(C)C)n2)CC1 (as salt: hydrochloride) [Compound 13, 4-((2,4-(di-tert-Butyl)phenoxy)methyl)-6-(4-methylpiperazin-1-yl)-1,3,5-triazin-2-amine hydrochloride] | 284 to 287 °C |  |  |  |  |  | 
Cn1c(=O)c2c(ncn2C)n(C)c1=O [CFN, Caffeine] |  | 15.1 ± 0.4 ×10^−6 cm/s |  |  |  |  | 
Cc1cccc(OCc2nc(N)nc(N3CCN(C)CC3)n2)c1 [Compound 1] |  |  | 19 fold |  |  |  | 
CC(C)c1ccccc1OCc1nc(N)nc(N2CCN(C)CC2)n1 [Compound 2, 4-((2-Isopropylphenoxy)methyl)-6-(4-methylpiperazin-1-yl)-1,3,5-triazin-2-amine] | 140 to 142 °C |  | 2 fold | 16300 nM | 1270 nM | 21 nM | 
CC(C)c1cccc(OCc2nc(N)nc(N3CCN(C)CC3)n2)c1 [Compound 4, 4-((3-Isopropylphenoxy)methyl)-6-(4-methylpiperazin-1-yl)-1,3,5-triazin-2-amine] | 103 to 105 °C |  |  | 5730 nM | 2610 nM | 41 nM | 1790 nM
CN1CCN(c2nc(N)nc(COc3cccc(C(C)(C)C)c3)n2)CC1 [Compound 5, 4-((3-(tert-Butyl)phenoxy)methyl)-6-(4-methylpiperazin-1-yl)-1,3,5-triazin-2-amine] | 101.2 to 104.1 °C |  |  | 15500 nM | 3110 nM | 108 nM | 
CC(C)c1ccc(OCc2nc(N)nc(N3CCN(C)CC3)n2)cc1 [Compound 6, 4-((4-Isopropylphenoxy)methyl)-6-(4-methylpiperazin-1-yl)-1,3,5-triazin-2-amine] | 133 to 135 °C |  |  | 10100 nM | 248 nM | 416 nM | 
CN1CCN(c2nc(N)nc(COc3ccc(C(C)(C)C)cc3)n2)CC1 [Compound 7, 4-((4-(tert-Butyl)phenoxy)methyl)-6-(4-methylpiperazin-1-yl)-1,3,5-triazin-2-amine] | 104.4 °C (dec.) |  |  | 4140 nM | 549 nM | 150 nM | 3130 nM
Cc1ccc(C(C)(C)C)c(OCc2nc(N)nc(N3CCN(C)CC3)n2)c1.Cl [Compound 8, 4-((2-(tert-Butyl)-5-methylphenoxy)methyl)-6-(4-methylpiperazin-1-yl)-1,3,5-triazin-2-amine hydrochloride] | 259 °C (dec.) |  |  | 15100 nM | 1240 nM | 6 nM | 1570 nM
Cc1ccc(OCc2nc(N)nc(N3CCN(C)CC3)n2)c(C(C)(C)C)c1 [Compound 9, 4-((2-(tert-Butyl)-4-methylphenoxy)methyl)-6-(4-methylpiperazin-1-yl)-1,3,5-triazin-2-amine] | 146.5 °C (dec.) |  |  | 10900 nM | 1930 nM | 48 nM | 2300 nM
Cc1cccc(C(C)(C)C)c1OCc1nc(N)nc(N2CCN(C)CC2)n1 [Compound 10, 4-((2-(tert-Butyl)-6-methylphenoxy)methyl)-6-(4-methylpiperazin-1-yl)-1,3,5-triazin-2-amine] | 177 to 179 °C (dec.) |  |  | 16600 nM |  | 236 nM | 
CC(C)c1cccc(C(C)C)c1OCc1nc(N)nc(N2CCN(C)CC2)n1 [Compound 11, 4-((2,6-Diisopropylphenoxy)methyl)-6-(4-methylpiperazin-1-yl)-1,3,5-triazin-2-amine] | 160 to 163 °C |  |  | 33600 nM | 7800 nM | 825 nM | 
CN1CCN(c2nc(N)nc(COc3c(C(C)(C)C)cccc3C(C)(C)C)n2)CC1 [Compound 12, 4-((2,6-(di-tert-Butyl)phenoxy)methyl)-6-(4-methylpiperazin-1-yl)-1,3,5-triazin-2-amine hydrochloride] |  |  |  | 8090 nM |  | 379 nM | 
CN1CCN(c2nc(N)nc(COc3ccc(C(C)(C)C)cc3C(C)(C)C)n2)CC1 [Compound 13, 4-((2,4-(di-tert-Butyl)phenoxy)methyl)-6-(4-methylpiperazin-1-yl)-1,3,5-triazin-2-amine hydrochloride] |  |  |  | 8470 nM | 760 nM | 162 nM | 2740 nM
Cc1ccc(C(C)C)c(OCCCc2nc(N)nc(N3CCN(C)CC3)n2)c1 [Compound 14, 4-(3-(2-Isopropyl-5-methylphenoxy)propyl)-6-(4-methylpiperazin-1-yl)-1,3,5-triazin-2-amine] | 77 °C |  |  | 6660 nM | 1690 nM | 412 nM | 1590 nM
CC(C)c1ccccc1OCCCc1nc(N)nc(N2CCN(C)CC2)n1.Cl [Compound 15, 4-(3-(2-Isopropylphenoxy)propyl)-6-(4-methylpiperazin-1-yl)-1,3,5-triazin-2-amine hydrochloride] | 235 °C |  |  | 8870 nM | 489 nM | 221 nM | 2430 nM
CC(C)c1ccc(OCCCc2nc(N)nc(N3CCN(C)CC3)n2)cc1 [Compound 16, 4-(3-(4-Isopropylphenoxy)propyl)-6-(4-methylpiperazin-1-yl)-1,3,5-triazin-2-amine] | 92 °C |  |  | 5120 nM | 1170 nM | 1110 nM | 704 nM
Cc1cccc(OCCCc2nc(N)nc(N3CCN(C)CC3)n2)c1 [Compound 17, 4-(4-Methylpiperazin-1-yl)-6-(3-(m-tolyloxy)propyl)-1,3,5-triazin-2-amine] | 114 to 117 °C |  |  | 30200 nM | 3850 nM | 1460 nM | 2600 nM
Cc1ccccc1OCCCc1nc(N)nc(N2CCN(C)CC2)n1 [Compound 18, 4-(4-Methylpiperazin-1-yl)-6-(3-(o-tolyloxy)propyl)-1,3,5-triazin-2-amine] | 83 °C |  |  | 14900 nM | 1440 nM | 574 nM | 1760 nM
Cc1ccc(C(C)C)c(OCCCCc2nc(N)nc(N3CCN(C)CC3)n2)c1.Cl [Compound 19, 4-(4-(2-Isopropyl-5-methylphenoxy)butyl)-6-(4-methylpiperazin-1-yl)-1,3,5-triazin-2-amine hydrochloride] | 239 °C |  |  | 638 nM | 687 nM | 142 nM | 3200 nM
CC(C)c1ccccc1OCCCCc1nc(N)nc(N2CCN(C)CC2)n1 [Compound 20, 4-(4-(2-Isopropylphenoxy)butyl)-6-(4-methylpiperazin-1-yl)-1,3,5-triazin-2-amine] | 59 °C |  |  | 665 nM | 677 nM | 43 nM | 5690 nM
Cc1cccc(OCCCCc2nc(N)nc(N3CCN(C)CC3)n2)c1 [Compound 21, 4-(4-Methylpiperazin-1-yl)-6-(4-(m-tolyloxy)butyl)-1,3,5-triazin-2-amine] | 99 to 101 °C |  |  | 6250 nM | 952 nM | 559 nM | 612 nM
Cc1ccc(C(C)C)c(OCCCCCc2nc(N)nc(N3CCN(C)CC3)n2)c1 [Compound 22, 4-(5-(2-Isopropyl-5-methylphenoxy)pentyl)-6-(4-methylpiperazin-1-yl)-1,3,5-triazin-2-amine] | 75 °C (dec.) |  |  | 771 nM | 709 nM | 282 nM | 837 nM
CC(C)c1ccccc1OCCCCCc1nc(N)nc(N2CCN(C)CC2)n1 [Compound 23, 4-(5-(2-Isopropylphenoxy)pentyl)-6-(4-methylpiperazin-1-yl)-1,3,5-triazin-2-amine] | 63 to 65 °C |  |  | 3430 nM | 597 nM | 189 nM | 196 nM
Cc1cccc(OCCCCCc2nc(N)nc(N3CCN(C)CC3)n2)c1 [Compound 24, 4-(4-Methylpiperazin-1-yl)-6-(5-(m-tolyloxy)pentyl) 1,3,5-triazin-2-amine] | 83 to 85 °C |  |  | 1890 nM | 854 nM | 644 nM | 481 nM
Cc1ccc(C(C)C)c(OCCCCCCc2nc(N)nc(N3CCN(C)CC3)n2)c1 [Compound 25, 4-(6-(2-Isopropyl-5-methylphenoxy)hexyl)-6-(4-methylpiperazin-1-yl)-1,3,5-triazin-2-amine] | 59 °C (dec.) |  |  | 1030 nM | 364 nM | 78 nM | 149 nM
Cc1ccc(C(C)C)c(OCc2nc(N)nc(N3CCN(C)CC3)n2)c1 [MST4, 4-((2-isopropyl-5-methylphenoxy)methyl)-6-(4-methylpiperazin-1-yl)-1,3,5-triazin-2-amine] |  | 12.3 ×10^−6 cm/s and 12.3 ± 2.0 ×10^−6 cm/s |  |  |  |  | 
